These results are taken from patent US5716971A, “Pyridine derivatives, their production and use” (Takeda Chemical Industries, Ltd., priority 1993, dated 1998).

Like-named read-outs stand apart in the source and are kept apart here.

Assay [1] concerns specimen of rat aorta. The experiment in a line: Vasorelaxation activity in a specimen of rat aorta: contraction caused by KCl. The settings on record: read-out: constriction inhibitory ratio. Here is the method:
(§1) Male Wister rats (10 to 13 week old were employed for the experiment. After dehematization, the aorta was excised and a ring specimen (5 mm length) was prepared. The specimen was suspended in a bath filled with oxygenated (95% O2 -5%CO2) Krebs solution (36° C.). The ring specimen was fixed at one end and the other end was connected to a transducer (Nippon Koden) for recording tension to determine the tension. After a stabilization period of one hour, TEA (30-45 mM) and BaCl2 (0.3 mM) were added to the bath to cause vasoconstriction. After the constriction had reached a steady state (after about 15 minutes), a test compound was added to the bath and its relaxation activity was measured.
Vasorelaxation activity in a specimen of rat aorta Effects on contraction caused by potassium chloride (KCl)
The same experiment was conducted as in Experiment 1, excepting the use of KCl ([…]) instead of TEA and BaCl2

For assay [2], the system named is specimen of rat aorta. The experiment in a line: Vasorelaxation activity in a specimen of rat aorta: contraction caused by TEA and BaCl2. The settings on record: TEA (30-45 mM) and BaCl2 (0.3 mM) contraction, read-out: constriction inhibitory ratio. The protocol: Vasorelaxation activity in a specimen of rat aorta Effects on contraction caused by tetraethylammonium chloride (TEA) and barium chloride (BaCl2)
as §1

Assay [3] concerns Spontaneously hypertensive rats. The experiment in a line: Hypotensive activity in rats (Tail Cuff Method), oral. It counts as in vivo. As to conditions: Rattus norvegicus, 1 mg/kg, SHR. The protocol: Hypotensive activity in rats (Tail Cuff Method)
Spontaneously hypertensive rats (SHR, male, 20 to 23 week old) were warmed up to 36° C. The blood pressure at the tail aorta was measured by the tail cuff method. The blood pressure was measured three times, i.e. before oral administration of the test compound, two hours after the administration and five hours after the administration. The test compound was orally administered in the state of a suspension in gum arabic.
Maximal, hypotensive effect against the blood pressure before the administration is shown as % pre. in Table 66. As a result, it is apparent that the compounds of this invention show hypotensive activity.

[4] abbreviates: after 2 hours, read-out: Maximal hypotensive effect against blood pressure before administration (% pre.), after 2 hours.
[5] abbreviates: after 5 hours, read-out: Maximal hypotensive effect against blood pressure before administration (% pre.), after 5 hours.

As to `Cc1cc(O)c(/C(=N/OC(C)(C)C)c2c(O)ccc[n+]2[O-])cc1C` [Compound 125, (Z)-2-(2-hydroxy-4,5-dimethyl-benzoyl)-3-hydroxy pyridine N-oxide O-t-butyloxime], in assay [1], the inhibition at 3 µM came to 1% and the inhibition at 10 µM is 8%. For the same compound, in assay [2], the inhibition at 3 µM was 25% and the inhibition at 10 µM turned out to be 78%.

For the compound `CC(C)(C)O/N=C(/c1cc([N+](=O)[O-])ccc1O)c1c(O)ccc[n+]1[O-]` [Compound 64, (Z)-2-(2-hydroxy-5-nitrobenzoyl)-3-hydroxypyridine N-oxide O-t-butyloxime], the inhibition at 3 µM came out at 0% in assay [1] and 43% in assay [2]. Further, the values for the inhibition at 10 µM in assay [1] and in assay [2] were 4% and 100%, respectively.

On to `CC(C)(C)O/N=C(/c1cc(Br)c(F)cc1O)c1ncccc1O` [Compound 68, (Z)-2-(5-bromo-4-fluoro-2-hydroxybenzoyl)-3-hydroxypyridine O-t-butyloxime], for which the values for the inhibition at 1 µM in assay [1] and in assay [2] were 4% and 92%, respectively.

`CC(C)(C)O/N=C(/c1cc(Br)ccc1O)c1cccc[n+]1[O-]` [Compound 89, (Z)-2-(5-bromo-2-hydroxybenzoyl)pyridine N-oxide O-t-butyloxime]: in assay [1], the inhibition at 3 µM worked out at 11% and the inhibition at 10 µM stood at 32%. Also, in assay [2], the inhibition at 3 µM worked out at 55% and the inhibition at 10 µM was 85%.

For `CC(C)O/N=C(/c1cc(Br)ccc1O)c1ncccc1O` [Compound 19, (Z)-2-(5-bromo-2-hydroxybenzoyl)-3-hydroxypyridine O-i-propyloxime], in assay [1], the inhibition at 1 µM is -5% and the inhibition at 3 µM turned out to be 6%. In assay [2], the inhibition at 1 µM amounted to 58% and the inhibition at 3 µM is 95%.

For `CC(C)(C)O/N=C(/c1cc(Cl)ccc1O)c1ncccc1Cl` [Compound 147, (Z)-2-(5-chloro-2-hydroxybenzoyl)-3-chloro pyridine O-t-butyloxime], the results for the inhibition at 1 µM in assay [1] and in assay [2] were 16% and 100%, respectively.

As for `Cc1cc(O)c(/C(=N/OC(C)(C)C)c2ncccc2O)cc1F` [Compound 114, (Z)-2-(5-fluoro-2-hydroxy-4-methylbenzoyl)-3-hydroxy pyridine O-t-butyloxime], in assay [1], the inhibition at 1 µM is 0% and the inhibition at 3 µM worked out at 0%. Further, in assay [2], the inhibition at 1 µM came out at 65% and the inhibition at 3 µM came to 89%.

Regarding `CC(C)(C)O/N=C(/c1cc(Br)c(F)cc1O)c1c(O)ccc[n+]1[O-]` [Compound 69, (Z)-2-(5-bromo-4-fluoro-2-hydroxybenzoyl)-3-hydroxypyridine N-oxide O-t-butyloxime], the figures for the inhibition in vivo at 1 mg/kg in assay [3] (setting [4]) and in assay [3] (setting [5]) were 26% and 19%, respectively. Besides, the figures for the inhibition at 1 µM in assay [1] and in assay [2] were 0% and 100%, respectively.

`CC(C)(C)O/N=C(/c1cc(Cl)c(Cl)cc1O)c1c(O)ccc[n+]1[O-]` [Compound 122, (Z)-2-(4,5-dichloro-2-hydroxybenzoyl)-3-hydroxypyridine N-oxide O-t-butyloxime]: the inhibition in vivo at 1 mg/kg was determined as 30% in assay [3] (setting [4]) and 24% in assay [3] (setting [5]). In addition, the results for the inhibition at 1 µM in assay [1] and in assay [2] were 0% and 100%, respectively.

With `CC(C)(C)O/N=C(/c1cc(C(F)(F)F)ccc1O)c1ncccc1O` [Compound 4, (Z)-2-(5-trifluoromethyl-2-hydroxybenzoyl)-3-hydroxypyridine O-t-butyloxime], in assay [1], the inhibition at 1 µM is -2% and the inhibition at 3 µM amounted to 7%. Also, in assay [2], the inhibition at 1 µM is 38% and the inhibition at 3 µM turned out to be 79%.

Regarding `CC(C)(C)O/N=C(/c1cc(C=O)ccc1O)c1ncccc1O` [Compound 117], in assay [1], the inhibition at 1 µM was 4%, the inhibition at 3 µM was 12% and the inhibition at 10 µM was found to be 32%. In assay [2], the inhibition at 1 µM was 10%, the inhibition at 3 µM was found to be 52% and the inhibition at 10 µM was 99%.

As to `Cc1cc(O)c(/C(=N/OC(C)(C)C)c2ncccc2O)cc1C` [Compound 106, (Z)-2-(2-hydroxy-4,5-dimethylbenzoyl)-3-hydroxy pyridine O-t-butyloxime], in assay [1], the inhibition at 1 µM is 0%, the inhibition at 3 µM amounted to 5% and the inhibition at 10 µM was 39%. Moreover, in assay [2], the inhibition at 1 µM turned out to be 2%, the inhibition at 3 µM worked out at 56% and the inhibition at 10 µM came to 100%.

Take `CC(C)(C)O/N=C(/c1cc(F)ccc1O)c1ncccc1O` [Compound 8, (Z)-2-(5-fluoro-2-hydroxybenzoyl)-3-hydroxypyridine O-t-butyloxime]: the figures for the inhibition at 1 µM in assay [1] and in assay [2] were -9% and 16%, respectively. Besides, the inhibition at 3 µM in assay [1] is -2%; in assay [2], 93%.

On to `Cc1cc(O)c(/C(=N/OC(C)(C)C)c2c(O)ccc[n+]2[O-])cc1F` [Compound 127, (Z)-2-(5-fluoro-2-hydroxy-4-methylbenzoyl)-3-hydroxy pyridine N-oxide O-t-butyloxime], for which, in assay [1], the inhibition at 3 µM was 0% and the inhibition at 10 µM is 0%. Also, in assay [2], the inhibition at 1 µM came out at 8%, the inhibition at 3 µM stood at 85% and the inhibition at 10 µM is 100%.

As for `CC(C)(C)O/N=C(/c1cc(Br)c(Cl)cc1O)c1c(O)ccc[n+]1[O-]` [Compound 119, (Z)-2-(5-bromo-4-chloro-2-hydroxybenzoyl)-3-hydroxypyridine N-oxide O-t-butyloxime], the inhibition in vivo at 1 mg/kg in assay [3] (setting [4]) was found to be 48%; in assay [3] (setting [5]) it was 29%. Further, the inhibition at 1 µM was 5% in assay [1] and 69% in assay [2]. The inhibition at 3 µM in assay [1] was found to be 6%; in assay [2], 71%.

Regarding `CCCCO/N=C(/c1cc(Br)ccc1O)c1ncccc1O` [Compound 18], in assay [2], the inhibition at 3 µM was 41% and the inhibition at 10 µM was 63%.

Turning to `COc1cc(O)c(/C(=N/OC(C)(C)C)c2c(O)ccc[n+]2[O-])cc1Br` [Compound 121, (Z)-2-(5-bromo-2-hydroxy-4-methoxybenzoyl)-3-hydroxy pyridine N-oxide O-t-butyloxime], in assay [1], the inhibition at 3 µM was determined as 0% and the inhibition at 10 µM was 0%. Further, in assay [2], the inhibition at 1 µM was 3%, the inhibition at 3 µM came to 57% and the inhibition at 10 µM is 82%.

Regarding `Cc1cc(/C(=N/OC(C)(C)C)c2ncccc2O)c(O)cc1F` [Compound 111, (Z)-2-(4-fluoro-2-hydroxy-5-methylbenzoyl)-3-hydroxy pyridine O-t-butyloxime], in assay [1], the inhibition at 1 µM turned out to be 0% and the inhibition at 3 µM turned out to be 0%. In addition, in assay [2], the inhibition at 1 µM is 81% and the inhibition at 3 µM came out at 92%.

Consider `CCOc1cc(O)c(/C(=N/OC(C)(C)C)c2ncccc2O)cc1Cl` [Compound 160], for which the inhibition at 1 µM in assay [1] is 18%; in assay [2], 100%.

In the case of `CC(C)(C)O/N=C(/c1cc(C#N)ccc1O)c1ncccc1O` [Compound 9, (Z)-2-(5-cyano-2-hydroxybenzoyl)-3-hydroxypyridine O-t-butyloxime], the inhibition at 3 µM in assay [1] came to 0%; in assay [2], 22%. For the same compound, the inhibition at 10 µM came out at 10% in assay [1] and 82% in assay [2].

In the case of `CC(C)(C)O/N=C(/c1cc(Cl)ccc1O)c1c(O)ccc[n+]1[O-]` [Compound 123], the inhibition in vivo at 1 mg/kg in assay [3] (setting [4]) was 37%; in assay [3] (setting [5]), 12%. Also, the inhibition at 3 µM in assay [1] came to 0%; in assay [2], 52%. Further, the results for the inhibition at 10 µM in assay [1] and in assay [2] were 0% and 91%, respectively.

Regarding `CC(C)(C)O/N=C(/c1ccc(F)cc1O)c1ncccc1O` [Compound 30, (Z)-2-(4-fluoro-2-hydroxybenzoyl)-3-hydroxypyridine O-t-butyloxime], in assay [1], the inhibition at 3 µM stood at 1% and the inhibition at 10 µM is 18%. In assay [2], the inhibition at 1 µM turned out to be 4%, the inhibition at 3 µM is 50% and the inhibition at 10 µM is 92%.
